Source: publication PMC2920549, “Bromopyrrole Alkaloids as Lead Compounds against Protozoan Parasites” (Marine Drugs, 2010)
Converted amounts (≈) assume the structure as drawn. “And” between values parts separate entries of the source, which are not always exact repeats. Identical values can stand only once. Like-named read-outs stand apart in the source and are kept apart here. Marks after values point to notes of the source that are not given here.

Columns and labels:
[1] = tested on: P. falciparum K1 strain erythrocytic stages; test: Activity against Plasmodium falciparum ([3H]-hypoxanthine incorporation); assay type: cell-based; conditions: for IC50: Plasmodium falciparum; for IC50 P. falciparum: K1 strain
Method: (§1) The toxicity on mammalian cells was assessed against L6 cells, a primary cell line derived from rat skeletal myoblasts.
The radioactivity was counted using a Betaplate^TM liquid scintillation counter (Wallac, Zurich, Switzerland). […] IC50 values were calculated from graphically plotted dose-response curves.

[2] = tested on: T. cruzi Tulahuen strain C2C4 intracellular amastigotes in L6 rat skeletal myoblasts; test: Activity against Trypanosoma cruzi (beta-galactosidase/CPRG assay in L6 cells); assay type: cell-based; conditions: for IC50 T. cruzi: 96 h; for IC50: Trypanosoma cruzi, TULAHUEN, L6, 96 h
Method: Then the substrate CPRG/Nonidet (50 μl) was added to all wells. A color reaction developed within 2–6 h and could be read photometrically at 540 nm. Data were transferred into the graphic programme Softmax Pro (Molecular Devices), which calculated IC50 values. […] Benznidazole was the standard drug used.

[3] = tested on: T. b. rhodesiense STIB 900 bloodstream forms; test: Activity against Trypanosoma brucei rhodesiense (resazurin assay); assay type: cell-based; conditions: for Selectivity index (CC50 L6 / IC50 parasite) for T. brucei rhodesiense: CC50 L6 cells divided by IC50 T. b. rhodesiense; for IC50: Trypanosoma brucei, read-out: IC50 T. b. rhodesiense; for IC50 / IC50 T. b. rhodesiense: 72 h
Method: as §1
STIB 900 strain of T. b. rhodesiense and the standard drug melarsoprol were used for the assay. […] Data were analyzed using the microplate reader software Softmax Pro (Molecular Devices Cooperation, Sunnyvale, CA, USA).

[4] = tested on: L. donovani strain MHOM/ET/67/L82 axenic amastigotes; test: Activity against Leishmania donovani (axenic amastigotes, resazurin); assay type: cell-based; conditions: for Selectivity index (CC50 L6 / IC50 parasite) for L. donovani: CC50 L6 cells divided by IC50 L. donovani; for IC50: Leishmania donovani, read-out: IC50 L. donovani; for IC50 / IC50 L. donovani: 72 h
Method: as §1
Amastigotes of L. donovani strain MHOM/ET/67/L82 were grown in axenic culture at 37 °C in SM medium at pH 5.4 supplemented with 10% heat-inactivated fetal bovine serum under an atmosphere of 5% CO2 in air. One hundred μL of culture medium with 10^5 amastigotes from axenic culture with or without a serial drug dilution were seeded in 96-well microtiter plates. […] Data were analyzed using the software Softmax Pro. Decrease of fluorescence (=inhibition) was expressed as percentage of the fluorescence of control cultures and plotted against the drug concentrations. From the sigmoidal inhibition curves the IC50 values were calculated. […] Miltefosine was used as a reference drug.

[5] = Cytotoxicity against L6-cells (resazurin); assay type: cell-based, rat; conditions: rat
Method: as §1
(§2) Assays were performed in 96-well microtiter plates, each well containing 100 μL of RPMI 1640 medium supplemented with 1% L-glutamine (200 mM) and 10% fetal bovine serum, and 4 × 10^4 L-6 cells (a primary cell line derived from rat skeletal myoblasts). Serial drug dilutions of seven 3-fold dilution steps covering a range from 90 to 0.123 μg/mL were prepared. After 72 h of incubation the plates were inspected under an inverted microscope to assure growth of the controls and sterile conditions. 10 μl of a resazurin solution (12.5 mg resazurin dissolved in 100 mL distilled water) was then added to each well and the plates incubated for another 2 h. Then the plates were read with a Spectramax Gemini XS microplate fluorometer using an excitation wavelength of 536 nm and an emission wavelength of 588 nm. Data were analyzed using the microplate reader software Softmax Pro. Each CC50 value obtained is the mean of at least two separate experiments performed in duplicate. Podophyllotoxin was the standard drug used.

[6] = target: T1, PfFabZ (β-hydroxyacyl-ACP dehydratase) (Plasmodium falciparum, UniProt Q965D7); test: biochemical; conditions: read-out: IC50 PfFabZ (converted)
T1 construct: made in house
T1 sequence (Q965D7 19-230): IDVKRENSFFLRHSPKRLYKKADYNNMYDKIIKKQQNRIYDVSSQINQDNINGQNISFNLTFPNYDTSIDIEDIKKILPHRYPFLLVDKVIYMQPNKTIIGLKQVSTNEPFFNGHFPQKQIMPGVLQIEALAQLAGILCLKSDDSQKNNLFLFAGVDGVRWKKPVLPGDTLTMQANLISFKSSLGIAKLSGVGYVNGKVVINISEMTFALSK
Method: Expression and purification of the PfFab enzymes as well as the assays were performed as described [29]. […] Measurements were carried out in Nundron Surface sterile 96-well plates, using 20 mM Hepes and 150 mM NaCl at pH 7.4. Compounds were dissolved in DMSO (maximum final concentration 1%). A dilution series of 50 μg/mL to 0.0005 μg/mL of dissolved compounds was measured. For PfFabI, 400 μM NADH (cofactor, Sigma) was added to 2 μg enzyme and reaction started by addition of 300 μM crotonyl-CoA (substrate, Sigma). The change of absorbance of the mixture was recorded spectrophotometrically at 340 nm for 40 minutes. Triclosan was used as a positive control and was analyzed the same way. For PfFabG 400 μM NADPH (cofactor, Fluka) was added to 0.5 μg enzyme and reaction started by addition of 300 μM acetoacetyl-CoA (substrate, Sigma). The change of absorbance of the mixture was recorded spectrophotometrically at 340 nm for 20 minutes. (-)-Epigallocatechin gallate (Sigma) was used as a positive control and was analyzed the same way. For PfFabZ, 600 μM crotonoyl-CoA (substrate, Sigma) was added to 0.5 μg enzyme. The change of absorbance of the mixture was recorded spectrophotometrically at 260 nm for 20 minutes. (−)-Epigallocatechin gallate was used as a positive control. IC50 values were estimated from graphically plotted dose-response curves. […]

L6 cells = test: Cytotoxicity against L6-cells (resazurin); assay type: cell-based, rat; conditions: 72 h
Method: as §1, §2

[7] = K1, K1 strain, erythrocytic stage, read-out: IC50 P. falciparum
[8] = 72 h, read-out: CC50 Cytotoxicity L6 cells

Which IC50 [1, 7] does the source give for `O=C(O)CC1CNC(=O)c2cc(Br)c(Br)n21` (centres unmarked) [Compound 8, longamide B] here?
The IC50 was 7.46 µg/mL (≈ 21.2 µM).

What about the “IC50 T. cruzi” value [2] of the same molecule?
The value was 33.03 µg/mL (≈ 93.8 µM).

And the IC50 [2]?
The IC50 was greater than 33 µg/mL.

What about the “Selectivity index (CC50 L6 / IC50 parasite) for T. brucei rhodesiense” value [3] of the same molecule?
The value was 6.5.

And the IC50 ([3]; STIB 900 bloodstream forms)?
The IC50 was 1.53 µg/mL (≈ 4.35 µM).

And the “Selectivity index (CC50 L6 / IC50 parasite) for L. donovani” value [4]?
The value was 2.6.

And the IC50 ([4]; axenic amastigotes)?
The IC50 was 3.85 µg/mL (≈ 10.9 µM).

And the CC50 at 72 h [5]?
The CC50 at 72 h was 9.94 µg/mL (≈ 28.2 µM).

For `O=C1NC[C@@H](O)n2c1cc(Br)c2Br` [Compound 9, longamide A], which IC50 [1, 7] is on record?
Its IC50 is greater than 20 µg/mL.

What about the IC50 [2] of the same molecule?
Its IC50 is greater than 90 µg/mL.

And the IC50 ([3]; STIB 900 bloodstream forms)?
The IC50 was greater than 90 µg/mL.

What about the IC50 ([4]; axenic amastigotes) of the same molecule?
The IC50 was greater than 90 µg/mL.

And the CC50 at 72 h [5]?
Its CC50 at 72 h is greater than 90 µg/mL.

With `Nc1nc([C@H]2[C@H](CNC(=O)c3cc(Br)c[nH]3)[C@@H](CNC(=O)c3cc(Br)c[nH]3)[C@@H]2c2c[nH]c(N)n2)c[nH]1` [Compound 10, sceptrin] as the molecule, how does the IC50 [1, 7] read?
The IC50 was 11.1 µg/mL (≈ 17.9 µM).

What about the “IC50 T. cruzi” value [2] of the same molecule?
The value was 60.08 µg/mL (≈ 96.9 µM).

What about the IC50 [2] of the same molecule?
Its IC50 is greater than 33 µg/mL.

What about the IC50 ([3]; STIB 900 bloodstream forms) of the same molecule?
Its IC50 is 9.71 µg/mL (≈ 15.7 µM).

And the IC50 ([4]; axenic amastigotes)?
The IC50 was 51.6 µg/mL (≈ 83.2 µM).

And the CC50 at 72 h [5]?
Its CC50 at 72 h is greater than 90 µg/mL.

With `NCC1C2CN3C(=O)c4cc(Br)c(Br)n4C4N=C(N)NC43C2C2(N=C(N)NC2O)C1Cl` (centres unmarked) [Compound 11, dibromopalau’amine] as the molecule, how does the “Selectivity index (CC50 L6 / IC50 parasite) for P. falciparum” value ([1]; CC50 L6 cells divided by IC50 P. falciparum) read?
Its value is 3–4.

What about the IC50 ([1]; K1, read-out: IC50 P. falciparum) of the same molecule?
The IC50 was 1.48 µg/mL (≈ 2.56 µM).

What about the “Selectivity index (CC50 L6 / IC50 parasite) for T. brucei rhodesiense” value [3] of the same molecule?
The value was “about 10”.

And the IC50 ([3]; STIB 900 bloodstream forms)?
The IC50 was 0.46 µg/mL (≈ 0.796 µM).

What about the “Selectivity index (CC50 L6 / IC50 parasite) for L. donovani” value [4] of the same molecule?
Its value is 3–4.

What about the IC50 [4] of the same molecule?
Its IC50 is 1.09 µg/mL (≈ 1.89 µM).

And the CC50 at 72 h [5, 8]?
Its CC50 at 72 h is 4.46 µg/mL (≈ 7.72 µM).

Which results are given for `N=C(N)NCCCC[C@H](NC(=O)c1cc(Br)c[nH]1)C(=O)O` [Compound 12, bromopyrrolohomoarginin]?
IC50 [1, 7]: > 20 µg/mL; IC50 [2]: > 90 µg/mL; IC50 ([3]; STIB 900 bloodstream forms): 67.1 µg/mL (≈ 186 µM); IC50 ([4]; axenic amastigotes): 34.5 µg/mL (≈ 95.7 µM); CC50 at 72 h [5]: 62.3 µg/mL (≈ 173 µM); IC50 [6]: 777 nM

Which IC50 [1, 7] does the source give for `C[C@]1(COC(=O)c2cc(Br)c[nH]2)C[C@@H](C(=O)O)N=CN1` [Compound 13, manzacidin A] here?
The IC50 was greater than 20 µg/mL.

What about the IC50 [2] of the same molecule?
The IC50 was greater than 90 µg/mL.

And the IC50 ([3]; STIB 900 bloodstream forms)?
The IC50 was 73.8 µg/mL (≈ 214 µM).

What about the IC50 ([4]; axenic amastigotes) of the same molecule?
The IC50 was 75.8 µg/mL (≈ 220 µM).

What about the CC50 at 72 h [5] of the same molecule?
Its CC50 at 72 h is greater than 90 µg/mL.

For `Nc1nc(N)nc(Nc2ccc([As]3SCC(CO)S3)cc2)n1` (centres unmarked) [Melarsoprol, reference compound], which IC50 [3] is on record?
The IC50 was 0.004 µg/mL.

For `CCCCCCCCCCCCCCCCOP(=O)([O-])OCC[N+](C)(C)C` [Miltefosine, reference compound], which IC50 ([4]; axenic amastigotes) is on record?
Its IC50 is 0.21 µg/mL (≈ 0.515 µM).

What about the “IC50 L. donovani” value ([4]; axenic amastigotes) of the same molecule?
Its value is 0.206 ^c μg/mL.

With `COc1cc([C@@H]2c3cc4c(cc3[C@H](O)[C@H]3COC(=O)[C@H]23)OCO4)cc(OC)c1OC` [Podophyllotoxin, reference compound] as the molecule, how does the CC50 at 72 h [5, 8] read?
Its CC50 at 72 h is 0.005 µg/mL (≈ 0.0121 µM).

Which results are given for agelongine [Compound 14]?
IC50 P. falciparum ([1]; erythrocytic stage): 11.18 µg/mL; IC50 T. cruzi [2]: >90 µg/mL; IC50 T. b. rhodesiense ([3]; STIB 900 bloodstream forms): 49.96 µg/mL; IC50 L. donovani ([4]; axenic amastigotes): 43.22 µg/mL; CC50 Cytotoxicity L6 cells (L6 cells): >90 µg/mL

Which “IC50 P. falciparum” value ([1]; erythrocytic stage) does the source give for spongiacidin B [Compound 6] here?
Its value is 1.34 µg/mL and 1.09 µg/mL.

What about the “IC50 T. b. rhodesiense” value ([3]; STIB 900 bloodstream forms) of the same molecule?
Its value is 13.58 µg/mL and 13.48 µg/mL.

What about the “IC50 L. donovani” value ([4]; axenic amastigotes) of the same molecule?
The value was 41.59 µg/mL.

And the “CC50 Cytotoxicity L6 cells” value (L6 cells)?
The value was 35.6 µg/mL and 35.61 µg/mL.
